# According to PMC9516332 (Frontiers in Oncology, 2022):
# Read-outs that look alike come from different tables or passages of the source.
# What was measured:
# [1] = tested on: AP-1060 (ETV6-NTRK3); experiment: Cell viability assay; conditions: read-out: IC50 in cell proliferation assay
# [2] = biological target: T1, panel of 255 wild-type kinases (Homo sapiens, UniProt P15735); conditions: kinase PHKG2; 1 µmol/L single concentration; ref DOI: 10.1158/1535-7163.MCT-18-0877; cited from earlier work
# T1 sequence (P15735 1-406): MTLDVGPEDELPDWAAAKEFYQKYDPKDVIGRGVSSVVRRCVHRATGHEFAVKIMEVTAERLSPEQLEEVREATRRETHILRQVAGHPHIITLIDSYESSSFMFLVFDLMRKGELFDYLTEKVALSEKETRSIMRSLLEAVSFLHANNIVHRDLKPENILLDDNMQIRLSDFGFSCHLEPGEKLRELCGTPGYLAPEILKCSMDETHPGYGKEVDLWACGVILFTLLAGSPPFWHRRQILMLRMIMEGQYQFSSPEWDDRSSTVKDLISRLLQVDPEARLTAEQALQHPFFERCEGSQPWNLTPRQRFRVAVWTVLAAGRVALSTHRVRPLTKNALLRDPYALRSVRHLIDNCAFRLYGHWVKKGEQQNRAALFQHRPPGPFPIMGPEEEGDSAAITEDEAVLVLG
# [3] = tested on: 134 cancer cell lines; experiment: Cell viability assay (ATPlite, 72 hours), IC50 on cancer cell line panel
structure (smiles),measurement,setting,value
CC#CC(=O)N1CCC[C@H]1c1nc(-c2ccc(C(=O)Nc3ccccn3)cc2)c2c(N)nccn12 [acalabrutinib],IC50,[1],> 31.6 µM
same,"%-inhibition at 1 µmol/L, PHKG2",[2],0.00605%
same,IC50,"[3]; HEC-6, read-out: IC50 in cell proliferation assay",> 31.6 µM
same,IC50,"[3]; Homo sapiens, 769-P, read-out: IC50 in cell proliferation assay",> 31.6 µM
same,IC50,"[3]; Homo sapiens, 786-0, read-out: IC50 in cell proliferation assay",> 31.6 µM
same,IC50,"[3]; Homo sapiens, A 172, read-out: IC50 in cell proliferation assay",> 31.6 µM
same,IC50,"[3]; Homo sapiens, A204, read-out: IC50 in cell proliferation assay",> 31.6 µM
same,IC50,"[3]; Homo sapiens, A498, read-out: IC50 in cell proliferation assay",> 31.6 µM
same,IC50,"[3]; Homo sapiens, A549, read-out: IC50 in cell proliferation assay",> 31.6 µM
same,IC50,"[3]; Homo sapiens, A704, read-out: IC50 in cell proliferation assay",> 31.6 µM
same,IC50,"[3]; Homo sapiens, A-375, read-out: IC50 in cell proliferation assay",> 31.6 µM
same,IC50,"[3]; Homo sapiens, A-427, read-out: IC50 in cell proliferation assay",> 31.6 µM
same,IC50,"[3]; Homo sapiens, ACHN, read-out: IC50 in cell proliferation assay",12.6 µM
same,IC50,"[3]; Homo sapiens, AN3-CA, read-out: IC50 in cell proliferation assay",> 31.6 µM
same,IC50,"[3]; Homo sapiens, ASPC1, read-out: IC50 in cell proliferation assay",> 31.6 µM
same,IC50,"[3]; Homo sapiens, AU565, read-out: IC50 in cell proliferation assay",0.685 µM
same,IC50,"[3]; Homo sapiens, BT-20, read-out: IC50 in cell proliferation assay",> 31.6 µM
same,IC50,"[3]; Homo sapiens, BT-474, read-out: IC50 in cell proliferation assay",0.594 µM
same,IC50,"[3]; Homo sapiens, BT-549, read-out: IC50 in cell proliferation assay",> 31.6 µM
same,IC50,"[3]; Homo sapiens, BXPC-3, read-out: IC50 in cell proliferation assay",> 31.6 µM
same,IC50,"[3]; Homo sapiens, C-33-A, read-out: IC50 in cell proliferation assay",2.01 µM
same,IC50,"[3]; Homo sapiens, CAL-27, read-out: IC50 in cell proliferation assay",> 31.6 µM
same,IC50,"[3]; Homo sapiens, CCF-STTG1, read-out: IC50 in cell proliferation assay",> 31.6 µM
same,IC50,"[3]; Homo sapiens, CCRF-CEM, read-out: IC50 in cell proliferation assay",> 31.6 µM
same,IC50,"[3]; Homo sapiens, COLO 205, read-out: IC50 in cell proliferation assay",> 31.6 µM
same,IC50,"[3]; Homo sapiens, COLO-829, read-out: IC50 in cell proliferation assay",> 31.6 µM
same,IC50,"[3]; Homo sapiens, DLD-1, read-out: IC50 in cell proliferation assay",> 31.6 µM
same,IC50,"[3]; Homo sapiens, DU-145, read-out: IC50 in cell proliferation assay",> 31.6 µM
same,IC50,"[3]; Homo sapiens, DU-4475, read-out: IC50 in cell proliferation assay",> 31.6 µM
same,IC50,"[3]; Homo sapiens, Daoy, read-out: IC50 in cell proliferation assay",> 31.6 µM
same,IC50,"[3]; Homo sapiens, DoTc2-4510, read-out: IC50 in cell proliferation assay",9.83 µM
same,IC50,"[3]; Homo sapiens, EOL1, read-out: IC50 in cell proliferation assay",25.8 µM
same,IC50,"[3]; Homo sapiens, FaDu, read-out: IC50 in cell proliferation assay",28.5 µM
same,IC50,"[3]; Homo sapiens, G-361, read-out: IC50 in cell proliferation assay",> 31.6 µM
same,IC50,"[3]; Homo sapiens, HCC827, read-out: IC50 in cell proliferation assay",> 31.6 µM
same,IC50,"[3]; Homo sapiens, HCC4006, read-out: IC50 in cell proliferation assay",17.4 µM
same,IC50,"[3]; Homo sapiens, HCT-15, read-out: IC50 in cell proliferation assay",> 31.6 µM
same,IC50,"[3]; Homo sapiens, HCT-116, read-out: IC50 in cell proliferation assay",> 31.6 µM
same,IC50,"[3]; Homo sapiens, HEC-1, read-out: IC50 in cell proliferation assay",> 31.6 µM
same,IC50,"[3]; Homo sapiens, HEC-1B, read-out: IC50 in cell proliferation assay",> 31.6 µM
same,IC50,"[3]; Homo sapiens, HL-60, read-out: IC50 in cell proliferation assay",> 31.6 µM
same,IC50,"[3]; Homo sapiens, HT, read-out: IC50 in cell proliferation assay",> 31.6 µM
same,IC50,"[3]; Homo sapiens, HT-1080, read-out: IC50 in cell proliferation assay",> 31.6 µM
same,IC50,"[3]; Homo sapiens, Hs746T, read-out: IC50 in cell proliferation assay",9.68 µM
same,IC50,"[3]; Homo sapiens, Hs-578T, read-out: IC50 in cell proliferation assay",> 31.6 µM
same,IC50,"[3]; Homo sapiens, HuTu80, read-out: IC50 in cell proliferation assay",> 31.6 µM
same,IC50,"[3]; Homo sapiens, J82, read-out: IC50 in cell proliferation assay",> 31.6 µM
same,IC50,"[3]; Homo sapiens, Jurkat E6.1, read-out: IC50 in cell proliferation assay",29.6 µM
same,IC50,"[3]; Homo sapiens, K562, read-out: IC50 in cell proliferation assay",> 31.6 µM
same,IC50,"[3]; Homo sapiens, KATO III, read-out: IC50 in cell proliferation assay",31.3 µM
same,IC50,"[3]; Homo sapiens, KG-1, read-out: IC50 in cell proliferation assay",> 31.6 µM
same,IC50,"[3]; Homo sapiens, KLE, read-out: IC50 in cell proliferation assay",> 31.6 µM
same,IC50,"[3]; Homo sapiens, KMS-11, read-out: IC50 in cell proliferation assay",> 31.6 µM
same,IC50,"[3]; Homo sapiens, KU812, read-out: IC50 in cell proliferation assay",> 31.6 µM
same,IC50,"[3]; Homo sapiens, Kasumi 1, read-out: IC50 in cell proliferation assay",> 31.6 µM
same,IC50,"[3]; Homo sapiens, LC-2-ad, read-out: IC50 in cell proliferation assay",19.6 µM
same,IC50,"[3]; Homo sapiens, LNCaP-Clone-FGC, read-out: IC50 in cell proliferation assay",> 31.6 µM
same,IC50,"[3]; Homo sapiens, LS174T, read-out: IC50 in cell proliferation assay",> 31.6 µM
same,IC50,"[3]; Homo sapiens, LS-411N, read-out: IC50 in cell proliferation assay",> 31.6 µM
same,IC50,"[3]; Homo sapiens, LoVo, read-out: IC50 in cell proliferation assay",> 31.6 µM
same,IC50,"[3]; Homo sapiens, MCF7, read-out: IC50 in cell proliferation assay",> 31.6 µM
same,IC50,"[3]; Homo sapiens, MDA-MB-231, read-out: IC50 in cell proliferation assay",> 31.6 µM
same,IC50,"[3]; Homo sapiens, MDA-MB-453, read-out: IC50 in cell proliferation assay",> 31.6 µM
same,IC50,"[3]; Homo sapiens, MDA-MB-468, read-out: IC50 in cell proliferation assay",> 31.6 µM
same,IC50,"[3]; Homo sapiens, MG-63, read-out: IC50 in cell proliferation assay",> 31.6 µM
same,IC50,"[3]; Homo sapiens, MIA PaCa-2, read-out: IC50 in cell proliferation assay",> 31.6 µM
same,IC50,"[3]; Homo sapiens, MKN-45, read-out: IC50 in cell proliferation assay",> 31.6 µM
same,IC50,"[3]; Homo sapiens, MOLM-13, read-out: IC50 in cell proliferation assay",9.38 µM
same,IC50,"[3]; Homo sapiens, MOLT-4, read-out: IC50 in cell proliferation assay",> 31.6 µM
same,IC50,"[3]; Homo sapiens, MV4-11, read-out: IC50 in cell proliferation assay",> 31.6 µM
same,IC50,"[3]; Homo sapiens, MeWo, read-out: IC50 in cell proliferation assay",> 31.6 µM
same,IC50,"[3]; Homo sapiens, NCCIT, read-out: IC50 in cell proliferation assay",> 31.6 µM
same,IC50,"[3]; Homo sapiens, NCI-H82, read-out: IC50 in cell proliferation assay",> 31.6 µM
same,IC50,"[3]; Homo sapiens, NCI-H460, read-out: IC50 in cell proliferation assay",> 31.6 µM
same,IC50,"[3]; Homo sapiens, NCI-H661, read-out: IC50 in cell proliferation assay",11 µM
same,IC50,"[3]; Homo sapiens, NCI-H716, read-out: IC50 in cell proliferation assay",> 31.6 µM
same,IC50,"[3]; Homo sapiens, NCI-H1650, read-out: IC50 in cell proliferation assay",> 31.6 µM
same,IC50,"[3]; Homo sapiens, NCI-H1975, read-out: IC50 in cell proliferation assay",> 31.6 µM
same,IC50,"[3]; Homo sapiens, NCI-H2228, read-out: IC50 in cell proliferation assay",> 31.6 µM
same,IC50,"[3]; Homo sapiens, OVCAR-3, read-out: IC50 in cell proliferation assay",> 31.6 µM
same,IC50,"[3]; Homo sapiens, PFSK-1, read-out: IC50 in cell proliferation assay",> 31.6 µM
same,IC50,"[3]; Homo sapiens, RL95-2, read-out: IC50 in cell proliferation assay",> 31.6 µM
same,IC50,"[3]; Homo sapiens, RPMI-7951, read-out: IC50 in cell proliferation assay",> 31.6 µM
same,IC50,"[3]; Homo sapiens, RS4-11, read-out: IC50 in cell proliferation assay",> 31.6 µM
same,IC50,"[3]; Homo sapiens, Rec1, read-out: IC50 in cell proliferation assay",0.021 µM
same,IC50,"[3]; Homo sapiens, SHP77, read-out: IC50 in cell proliferation assay",> 31.6 µM
same,IC50,"[3]; Homo sapiens, SK-BR-3, read-out: IC50 in cell proliferation assay",0.409 µM
same,IC50,"[3]; Homo sapiens, SK-N-AS, read-out: IC50 in cell proliferation assay",> 31.6 µM
same,IC50,"[3]; Homo sapiens, SK-N-FI, read-out: IC50 in cell proliferation assay",> 31.6 µM
same,IC50,"[3]; Homo sapiens, SK-N-MC, read-out: IC50 in cell proliferation assay",> 31.6 µM
same,IC50,"[3]; Homo sapiens, SK-N-SH, read-out: IC50 in cell proliferation assay",9.87 µM
same,IC50,"[3]; Homo sapiens, SNU-5, read-out: IC50 in cell proliferation assay",> 31.6 µM
same,IC50,"[3]; Homo sapiens, SNU-16, read-out: IC50 in cell proliferation assay",> 31.6 µM
same,IC50,"[3]; Homo sapiens, SNU-C2B, read-out: IC50 in cell proliferation assay",> 31.6 µM
same,IC50,"[3]; Homo sapiens, SU-DHL-1, read-out: IC50 in cell proliferation assay",> 31.6 µM
same,IC50,"[3]; Homo sapiens, SU-DHL-6, read-out: IC50 in cell proliferation assay",0.003 µM
same,IC50,"[3]; Homo sapiens, SUP-T1, read-out: IC50 in cell proliferation assay",> 31.6 µM
same,IC50,"[3]; Homo sapiens, SW48, read-out: IC50 in cell proliferation assay",4.43 µM
same,IC50,"[3]; Homo sapiens, SW480, read-out: IC50 in cell proliferation assay",> 31.6 µM
same,IC50,"[3]; Homo sapiens, SW626, read-out: IC50 in cell proliferation assay",> 31.6 µM
same,IC50,"[3]; Homo sapiens, SW780, read-out: IC50 in cell proliferation assay",> 31.6 µM
same,IC50,"[3]; Homo sapiens, SW837, read-out: IC50 in cell proliferation assay",> 31.6 µM
same,IC50,"[3]; Homo sapiens, SW872, read-out: IC50 in cell proliferation assay",> 31.6 µM
same,IC50,"[3]; Homo sapiens, SW900, read-out: IC50 in cell proliferation assay",> 31.6 µM
same,IC50,"[3]; Homo sapiens, SW948, read-out: IC50 in cell proliferation assay",> 31.6 µM
same,IC50,"[3]; Homo sapiens, SW982, read-out: IC50 in cell proliferation assay",> 31.6 µM
same,IC50,"[3]; Homo sapiens, SW-620, read-out: IC50 in cell proliferation assay",> 31.6 µM
same,IC50,"[3]; Homo sapiens, T98G, read-out: IC50 in cell proliferation assay",> 31.6 µM
same,IC50,"[3]; Homo sapiens, TCC-SUP, read-out: IC50 in cell proliferation assay",> 31.6 µM
same,IC50,"[3]; Homo sapiens, THP-1, read-out: IC50 in cell proliferation assay",> 31.6 µM
same,IC50,"[3]; Homo sapiens, U2OS, read-out: IC50 in cell proliferation assay",> 31.6 µM
same,IC50,"[3]; Homo sapiens, U-87 MG, read-out: IC50 in cell proliferation assay",> 31.6 µM
same,IC50,"[3]; Homo sapiens, U-118-MG, read-out: IC50 in cell proliferation assay",> 31.6 µM
same,IC50,"[3]; Homo sapiens, UMUC3, read-out: IC50 in cell proliferation assay",> 31.6 µM
same,IC50,"[3]; Hs766T, read-out: IC50 in cell proliferation assay",> 31.6 µM
same,IC50,"[3]; L-82, read-out: IC50 in cell proliferation assay",> 31.6 µM
same,IC50,"[3]; Rh30, read-out: IC50 in cell proliferation assay",> 31.6 µM
